# In patent US6492374B2, “Benzofuran derivatives, their preparation and use” (H. Lundbeck A/S, priority 1998, dated 2002):
# Assays:
# [1] = test system: serotonin reuptake (3H-5-HT uptake into whole rat brain synaptosomes); test: Inhibition of 3H-5-HT uptake into rat brain synaptosomes; format: biochemical
# Description: Inhibition of ^3H-5HT Uptake Into Rat Brain Synaptosomes
# Using this method, the ability of drugs to inhibit the accumulation of ^3H-5-HT into whole rat brain synaptosomes is determined in vitro.
# [2] = molecular target: T1, cloned human 5-HT1A receptors (Homo sapiens, UniProt P08908); test: Inhibition of 3H-5-CT binding to human 5-HT1A receptors; conditions: cloned human 5-HT1A receptors expressed in HeLa cells (HA7)
# T1 construct: expressed in transfected cells; host or cells: HeLa cells (HA7), stably transfected; cell homogenate
# T1 sequence (P08908 1-422): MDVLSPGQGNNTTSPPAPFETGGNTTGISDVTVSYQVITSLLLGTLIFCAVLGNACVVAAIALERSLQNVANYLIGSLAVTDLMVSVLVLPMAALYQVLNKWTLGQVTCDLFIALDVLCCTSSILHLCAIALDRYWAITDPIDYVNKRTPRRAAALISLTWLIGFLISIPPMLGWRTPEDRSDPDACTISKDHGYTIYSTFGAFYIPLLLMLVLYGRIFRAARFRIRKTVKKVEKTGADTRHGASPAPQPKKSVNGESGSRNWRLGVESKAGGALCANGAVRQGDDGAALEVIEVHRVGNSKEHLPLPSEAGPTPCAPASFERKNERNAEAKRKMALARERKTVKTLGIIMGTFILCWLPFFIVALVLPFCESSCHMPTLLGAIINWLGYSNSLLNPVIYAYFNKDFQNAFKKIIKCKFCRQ
# Description: Inhibition of ^3H-5CT Binding to Human 5-HT1A Receptors
# Human 5-HT1A receptors (40 μg of cell homogenate) were incubated for 15 minutes at 37° C. in 50 mM Tris buffer at pH 7.7 in the presence of ^3H-5-CT. Non-specific binding was determined by including 10 μM of metergoline. The reaction was terminated by rapid filtration through Unifilter GF/B filters on a Tomtec Cell Harvester. Filters were counted in a Packard Top Counter.
SMILES,Inhibition of serotonin reuptake % inhibition at 100 nM [1] [% inh. at 100 nM],IC50 [2] [nM],IC50 [1] [nM]
"CN(CCCc1c[nH]c2ccc(Br)cc12)CCCC1(c2ccc(F)cc2)OCc2cc(C#N)ccc21 (stereo not shown) [Compound 12aa, 1-[3-[[3-(5-Bromo-1H-indol-3-yl)propyl]methylamino]propyl]-1-(4-fluorophenyl)-1,3-dihydroisobenzofuran-5-carbonitrile]",37,16,
"CCN(CCCc1c[nH]c2c(F)cccc12)CCCC1(c2ccc(F)cc2)OCc2cc(C#N)ccc21 (stereo not shown) [Compound 12p, 1-[3-[Ethyl[3-(7-fluoro-1H-indol-3-yl)propyl]amino]propyl]-1-(4-fluorophenyl)-1,3-dihydroisobenzofuran-5carbonitrile]",,19,11
"C=CCN(CCCc1c[nH]c2ccc(F)cc12)CCCC1(c2ccc(F)cc2)OCc2cc(C#N)ccc21 (stereo not shown) [Compound 13d, 1-[3-[[3-(5-Fluoro-1H-indol-3-yl)propyl](prop-2-en-1-yl)amino]propyl]-1-(4-fluorophenyl)-1,3-dihydroisobenzofuran-5-carbonitrile]",,15,21
CCN(CCCC1(c2ccc(F)cc2)OCc2cc(C#N)ccc21)CCc1c[nH]c2c(F)cccc12 (stereo not shown) [Compound 12k],,3.6,8.4
"COc1ccccc1OCCN(C)CCCC1(c2ccc(F)cc2)OCc2cc(C#N)ccc21 (stereo not shown) [Compound 2b, 1-(4-Fluorophenyl)-1-[3-[[2-(2-methoxyphenoxy)ethyl]methylamino]propyl]-1,3-dihydroisobenzofuran-5-carbonitrile]",,6.4,40
"CCN(CCCc1c[nH]c2ccc(C)cc12)CCCC1(c2ccc(F)cc2)OCc2cc(C#N)ccc21 (stereo not shown) [Compound 12o, 1-[3-[Ethyl[3-(5-methyl-1H-indol-3-yl)propyl]amino]propyl]-1-(4-fluorophenyl)-1,3-dihydroisobenzofuran-5-carbonitrile]",49,6.2,
CCN(CCCC1(c2ccc(F)cc2)OCc2cc(C#N)ccc21)CCc1c[nH]c2ccc(I)cc12 (stereo not shown) [Compound 12ae],49,11,
"C=CCN(CCCC1(c2ccc(F)cc2)OCc2cc(C#N)ccc21)CCc1cc(OC)ccc1OC (stereo not shown) [Compound 4f, 1-[3-[[2-(2,5-Dimethoxyphenyl)ethyl](prop-2-en-1-yl)amino]propyl]-1-(4-fluorophenyl)-1,3-dihydroisobenzofuran-5-carbonitrile]",4,1.6,
"CCCN(CCCC1(c2ccc(F)cc2)OCc2cc(C#N)ccc21)CCc1c[nH]c2c(F)cc(F)cc12 (stereo not shown) [Compound 13g, 1-[3-[[2-(5,7-Difluoro-1H-indol-3-yl)ethyl]propylamino]propyl]-1-(4-fluorophenyl)-1,3-dihydroisobenzofuran-5-carbonitrile]",49,18,
"COc1cccc(OCCCN(C)CCCC2(c3ccc(F)cc3)OCc3cc(C#N)ccc32)c1 (stereo not shown) [Compound 4o, 1-(4-Fluorophenyl)-1-[3-[[3-(3-methoxyphenoxy)propyl]methylamino]propyl]-1,3-dihydroisobenzofuran-5-carbonitrile]",,26,73
"CN(CCCC1(c2ccc(F)cc2)OCc2cc(C#N)ccc21)CCc1c[nH]c2ccccc12 (stereo not shown) [Compound 4a, 1-[3-[[2-(1H-Indol-3-yl)ethyl]methylamino]propyl]-1-(4-fluorophenyl)-1,3-dihydroisobenzofuran-5-carbonitrile]",,23,54
"CCN(CCCc1c[nH]c2ccc(F)cc12)CCCC1(c2ccc(F)cc2)OCc2cc(C#N)ccc21 (stereo not shown) [Compound 12q, 1-[3-[Ethyl[3-(5-fluoro-1H-indol-3-yl)propyl]amino]propyl]-1-(4-fluorophenyl)-1,3-dihydroisobenzofuran-5carbonitrile]",,12,6.3
"CCN(CCCc1c[nH]c2ccc(Cl)cc12)CCCC1(c2ccc(F)cc2)OCc2cc(C#N)ccc21 (stereo not shown) [Compound 12x, 1-[3-[[3-(5-Chloro-1H-indol-3-yl)propyl]ethylamino]propyl]-1-(4-fluorophenyl)-1,3-dihydroisobenzofuran-5-carbonitrile]",50,14,
CCN(CCCc1c[nH]c2ccccc12)CCCC1(c2ccc(F)cc2)OCc2cc(C#N)ccc21 (stereo not shown) [Compound 12f],,4.7,13
"CCN(CCCC1(c2ccc(F)cc2)OCc2cc(C#N)ccc21)CCc1c[nH]c2c(Cl)cccc12 (stereo not shown) [Compound 12s, 1-[3-[[2-(7-Chloro-1H-indol-3-yl)ethyl]ethylamino]propyl]-1-(4-fluorophenyl)-1,3-dihydroisobenzofuran-5-carbonitrile]",,7.7,18
"C=CCN(CCCOc1ccccc1OC)CCCC1(c2ccc(F)cc2)OCc2cc(C#N)ccc21 (stereo not shown) [Compound 4n, 1-(4-Fluorophenyl)-1-[3-[[3-(2-methoxyphenoxy)propyl](prop-2-en-1-yl)amino]propyl]-1,3-dihydroisobenzofuran-5-carbonitrile]",39,14,
"CN(CCCC1(c2ccc(F)cc2)OCc2cc(C#N)ccc21)CCOCc1ccccc1 (stereo not shown) [Compound 4q, 1-[3-[(2-Benzyloxyethyl)methylamino]propyl]-1-(4-fluorophenyl)-1,3-dihydroisobenzofuran-5-carbonitrile]",60,16,
C=CCN(CCCOc1cccc(OC)c1)CCCC1(c2ccc(F)cc2)OCc2cc(C#N)ccc21 (stereo not shown) [Compound 4p],6,19,
"CN(CCCc1c[nH]c2ccccc12)CCC[C@@]1(c2ccc(F)cc2)OCc2cc(C#N)ccc21 [Compound 2f, (S)-1-[3-[[3-(1H-Indol-3-yl)propyl]methylamino]propyl]-1-(4-fluorophenyl)-1,3-dihydroisobenzofuran-5-carbonitrile]",,8.6,14
"CN(CCCc1c[nH]c2ccccc12)CCCC1(c2ccccc2)OCc2ccccc21 (stereo not shown) [Compound 2g, 1-[3-[[3-(1H-Indol-3-yl)propyl]methylamino]propyl]-1-phenyl-1,3-dihydroisobenzofuran]",,40,20
"C=CCN(CCCC1(c2ccc(F)cc2)OCc2cc(C#N)ccc21)CCc1c[nH]c2ccccc12 (stereo not shown) [Compound 4h, 1-[3-[[2-(1H-Indolyl-3-yl)ethyl](prop-2-en-1-yl)amino]propyl]-1-(4-fluorophenyl) 1,3-dihydroisobenzofuran-5carbonitrile]",,3.2,69
"CN(CCCc1c[nH]c2ccc(F)cc12)CCCC1(c2ccc(F)cc2)OCc2cc(C#N)ccc21 (stereo not shown) [Compound 12i, 1-[3-[[3-(5-Fluoro-1H-indol-3-yl)propyl]methylamino]propyl]-1-(4-fluorophenyl)-1,3-dihydroisobenzofuran-5-carbonitrile]",,27,20
"CCN(CCCc1c[nH]c2ccc(I)cc12)CCCC1(c2ccc(F)cc2)OCc2cc(C#N)ccc21 (stereo not shown) [Compound 12af, 1-[3-[Ethyl[3-(5-iodo-1H-indol-3-yl)propyl]amino]propyl]-1-(4-fluorophenyl)-1,3-dihydroisobenzofuran-5-carbonitrile]",38,31,
